Laboratory results reported in PMC10726451, “MAIP: An Open-Source Tool to Enrich High-Throughput Screening Output and Identify Novel, Druglike Molecules with Antimalarial Activity” (ACS Medicinal Chemistry Letters, 2023).
≈ marks a conversion by molar mass, not a printed value. Read-outs that look alike come from different tables or passages of the source.

Tests used:
[1] = Metabolic stability in cryopreserved rat hepatocytes; type: in vitro ADME
Protocol: Metabolic stability using cryopreserved rat hepatocytes
A solution of the test compound in Krebs-Henseleit buffer solution (1 µM) was incubated in […]
CO2, 95% relative humidity). The reaction was terminated with the addition of ice-cold acetonitrile containing system suitability standard at designated time points. The sample was centrifuged (4200 rpm) for 20 minutes at 20 °C and the supernatant was half diluted in water and then analysed by means of LC-MS/MS. Compound clearance (CLint,app) was calculated using standard methodology. The experiment was carried out in duplicate. Diltiazem, 7-ethoxy coumarin, propranolol and midazolam were used as reference standards. […]

P. falciparum Dd2 = P. falciparum Dd2 parasite growth, pLDH readout, 72 h incubation; type: cell-based; settings: Plasmodium falciparum, read-out: Dd2 LDH (72 h) IC50
Protocol: (§1) Here, this state of the art screening platform was applied to CQL (Figure 3). During solubilization and reformatting activities, 40 samples were identified with solubility issues and removed from the screening set, thereby leaving 5810 compounds (4623 scored + 1187 randomly selected). A primary screen was conducted at a single concentration (2 μM) against P. falciparum NF54 (nanoGlo readout over 72 h incubation). […] These compounds were then tested in five-point dose–response curve (DRC) assays, each of which provides key information to decide which compound(s) to progress (highlighted in blue). Five different assays were carried out, including three parasite growth assays over 72 h of incubation (P. falciparum NF54 in both nanoGlo and pLDH read-outs and P. falciparum Dd2 in pLDH read-out), one parasite growth assay over 12 h of incubation (P. falciparum NF54 in nanoGlo read-out) in order to evaluate the speed of action, and a cytotoxicity assay against human HepG2 cells over 72 h of incubation. Out of 36 screening active compounds (36 + 0) fulfilling all of the ideal criteria, 12 were deemed attractive in terms of chemical novelty and diversity for further progression and evaluation. This set of compounds was further complemented with others that passed at least three of the five DRC criteria, together with assessments of chemical novelty and diversity, which led to 33 selected compounds. Twenty-two compounds (those still available from commercial suppliers) were repurchased, and the compound efficacy was retested against P. falciparum 3D7 (pLDH readout over 72 h incubation) and human HepG2 cells over 72 h of incubation at a different testing center.
No unexpected or unusually high safety hazards were encountered.
(§2) The Medicines for Malaria Venture (MMV)’s P. falciparum asexual blood stage phenotypic screening platform was used to experimentally validate the selected compounds. Full details can be found in a recent publication.5 Briefly, the HTS cascade relies on a newly developed P. falciparum strain genetically modified to express a nano-luciferase reporter gene driven by the ef1α promoter. In addition to providing similar results compared to a fluorescence-based assay, this reporter provided a robust read-out for parasite replication with incubation times as short […]
(§3) The screening platform consists of a primary screening where the compounds were tested at a single concentration (2 μM) against the chloroquine and pyrimethamine sensitive P. falciparum strain NF54 using a nanoGlo detection reagent. Compounds that exceeded a Z-score threshold of -4 were screened a second time in this assay format in addition to an orthogonal assay (P. falciparum NF54, pLDH). Only the compounds inhibiting parasite growth by more than 30% were then tested in five dose-response curve (DRC) assays. These assays were designed to evaluate different aspects any future antimalarial drug has to fulfil: - sensitivity (P. falciparum NF54, nanoGlo and P. falciparum NF54, pLDH); - efficacy against resistant parasite strains (P. falciparum Dd2, pLDH); - low cellular toxicity (HepG2 cells). In addition, to evaluate their speed of action, […]

[2] = Solubility in PBS pH 7.4, miniaturised shake flask; type: physicochemical; settings: kinetic from dmso stock, 25 °C
Protocol: Solubility in phosphate buffered saline (PBS) pH7.4
The solubility assay was performed using a miniaturised shake flask method. A solution of phosphate buffered saline (PBS) and the test compound (200 µM) was incubated at 25 °C with constant shaking (600 rpm) for 2 hours. The samples were filtered using a multiscreen solubility filter plate. The filtrate was half diluted in acetonitrile. A five-point linearity curve was prepared in PBS:Acetonitrile (1:1, v/v) at 200, 150, 75, 25 and 2.5 µM. Blank, linearity and test samples (n = 2) were transferred to a UV readable plate and the plate was scanned for absorbance. Best […]
fit calibration curves were constructed using the calibration standards and used to determine the test sample solubility. The experiment was carried out in duplicate. Diethylstilbestrol, haloperidol and sodium diclofenac were used as reference standards. […]

P. falciparum 3D7 [3] = assay: P. falciparum 3D7 parasite growth, pLDH readout, 72 h incubation; type: cell-based; settings: Plasmodium falciparum, P. falciparum 3D7, pLDH readout, read-out: 3D7 LDH (72 h) IC50
Protocol: Afterwards, the remaining compounds were evaluated for their attractiveness derived from the chemical diversity relative to existing antimalarial drugs (Table S2 / Supplementary file SMILES-Table S2.xls) and calculated using Tanimoto similarity based on 2D molecular fingerprints. At this stage the list of remaining compounds was expanded with additional compounds that fulfilled at least 3 of the DRC assays criteria. Compounds still commercially available for re-stock were purchased and retested in a different laboratory against P. falciparum 3D7 with a pLDF read-out, […]
(§4) and in human HepG2 cells. […]
(§5) in the parasite growth inhibition assay, and higher than 10 μM in the cell viability assay obtained in two distinct locations. […]

in vitro = type: cell-based; settings: human
Protocol: as §1, with “center. […]” for “center.”
as §2, §3
versus 72 hours for the assays previously mentioned. […]
Compounds still commercially available for re-stock were purchased and retested in a different laboratory against P. falciparum 3D7 with a pLDF read-out, […]
as §4, §5

[4] = Metabolic stability in human liver microsomes; type: in vitro ADME; settings: 1 µM compound, 0.5 mg/mL pooled human liver microsomes
Protocol: Metabolic stability study using human liver microsomes
A solution of the test compounds in phosphate buffer solution (1 µM) was incubated in pooled human liver microsomes (0.5 mg/mL) for 0, 5, 20, 30, 45 and 60 minutes at 37 °C in the presence and absence of NADPH regeneration system. The reaction was terminated with the addition of ice-cold acetonitrile containing system suitability standard at designated time points. The sample was centrifuged (4200 rpm) for 20 minutes at 20 °C and the supernatant was half diluted in water and then analysed by means of LC-MS/MS. Compound clearance (CLint,app) was […]
calculated using standard methodology. The experiment was carried out in duplicate.
Verapamil, diltiazem, phenacetin and imipramine were used as reference standards. […]

[5] = LogD at pH 7.4, miniaturised shake flask; type: physicochemical
Protocol: The LogD pH7.4 assay was performed using a miniaturised shake flask method. A solution of a pre-saturated mixture of 1-octanol and PBS (1:1, v/v) and the test compound (75 µM) was incubated at 25 °C with constant shaking (850 rpm) for 2 hours. After incubation the organic and aqueous phases were separated, and samples of each phase transferred to plate for dilution. The organic phase was diluted to 1000-fold and the aqueous phase was diluted 20-fold. The samples were quantitated using LC-MS/MS. The experiment was carried out in duplicate. Propranolol, amitriptyline and midazolam were used as reference standards. […]

P. falciparum 3D7 [6] = tested on: P. falciparum 3D7; parameters: method as in ChEMBL (version 32), ref 29; settings: ref ChEMBL (version 32), cited from earlier work
[7] = pooled cryopreserved rat hepatocytes, 1 µM compound, pooled rat hepatocytes 1×10^6 cells/mL, read-out: rat hepatocytes CLint
[8] = phosphate buffered saline, aqueous buffer, PBS pH 7.4, test compound 200 µM, 2 hours
[9] = 1-octanol/PBS (1:1, v/v), pre-saturated, 1-octanol/PBS, pH 7.4, 25 °C, read-out: LogD pH 7.4
[10] = phosphate buffered saline, aqueous buffer, PBS pH 7.4, test compound 200 µM, 2 hours, read-out: kinetic solubility
[11] = read-out: Antimalarial activity: XC50

SMILES	hepatocyte CLint at 1.5 h, 1 µM [1, 7] [µL/min/1e6 cells]	IC50 (P. falciparum Dd2; DD2, 72 h) [nM]	solubility kinetic at 2 h, 200 µM [2, 8] [µM]	IC50 (P. falciparum 3D7 [3]) [nM]	IC50 at 72 h (in vitro) [µM]	microsomal CLint at 1 h, 1 µM [4] [µL/min/mg]	logD at 2 h, 75 µM [5, 9]	solubility kinetic at 2 h [2, 10] [µM]	IC50 (P. falciparum 3D7 [6]; [11]) [nM]	IC50 (P. falciparum 3D7 [6]; read-out: Antimalarial activity: inhibition) [nM]	hepatocyte CLint at 1.5 h, 1 µM ([1]; rat, hepatocytes) [µL/min/1e6 cells]	IC50 (P. falciparum Dd2; P. falciparum Dd2 (drug-resistant), pLDH readout, 72 h) [nM]	solubility kinetic at 2 h ([2]; pH 7.4, aqueous buffer) [µM]	logD at 2 h, 75 µM ([5]; pH 7.4)	logD ([5]; 1-octanol/PBS (1:1, v/v), pre-saturated, 1-octanol/PBS, pH 7.4, 25 °C)
Cc1cnccc1N1CCCN(Cc2ccccc2OCCN2CCN(C)CC2)CC1 [MMV1802771]	2.6	1100	100 (≈ 42.4 µg/mL)	810	20	11	1	–	–	–	–	–	–	–	–
c1ccc(-c2ccnc(C3CCN(CC45CNCC4C5)CC3)n2)cc1 (centres unmarked) [MMV1797658]	7.2	1500	–	780	22.1	3.5	0.5	≥ 200	–	–	–	–	–	–	–
COc1ccc(-c2cncc(C(=O)NCC3CCN(CCN(C)C)CC3)c2)cc1 [MMV1799348]	1.2	2700	198 (≈ 78.5 µg/mL)	1100	> 25	3.5	1.2	–	–	–	–	–	–	–	–
CC1CCN(Cc2cccc(C(=O)NCc3ccc(F)c(-c4ccc(CN5CCN[C@H](C)C5)cc4)c3)c2)CC1 [CHEMBL580242]	–	–	–	–	–	–	–	–	1460	–	–	–	–	–	–
Oc1cc(CN2CCC(O)(Cn3ccnc3)CC2)nc2c(Cl)cccc12 [CHEMBL3476473]	–	–	–	–	–	–	–	–	–	882	–	–	–	–	–
Cc1c(CN2CCC(O)(Cn3ccnc3)CC2)[nH]c2c(Cl)cccc12 [MMV1801316]	2.7	3600	86 (≈ 30.9 µg/mL)	1500	> 25	24.1	2.8	–	–	–	–	–	–	–	–
CN1CCC(Oc2ccc(NC(=O)c3cn4ccnc4s3)cn2)CC1 [MMV1797331]	1.9	2000	–	1900	21.6	3.7	1	≥ 200	–	–	–	–	–	–	–
COc1c(C2CCN(CCN3CCC(CNC(=O)c4ccc(-c5ccc(C#N)cc5)cc4)CC3)CC2)ccc2c1CCCC2 [CHEMBL528171]	–	–	–	–	–	–	–	–	445	–	–	–	–	–	–
CC1(N2CCC2)CCC(NCC2CCN(Cc3ccccc3)C2)CC1 (centres unmarked) [MMV1798925]	7.2	1500	173 (≈ 59.1 µg/mL)	1100	19.1	3.5	0.3	–	–	–	–	–	–	–	–
CN1CCN(CCCCNC2CC3CCC(C2)N3Cc2ccccc2)CC1 (centres unmarked) [MMV1797951]	–	–	–	1000	13.8	8.3	–	–	–	–	1.4	980	≥ 200	-0.2	–
O=C(NC1CCN(CCOc2ccc(Cl)cc2)CC1)c1c[nH]c2ccncc2c1=O [MMV1798946]	2	2000	170 (≈ 72.6 µg/mL)	750	> 25	14	–	–	–	–	–	–	–	–	2.9
